Experimental data: patent EP2045247B1, “Compounds for the inhibition of histone deacetylase” (NatureWise Biotech & Medicals Corporation, priority 2007, dated 2009)

Key:
HDAC = HDAC activity assay (fluorometric kit) on nuclear extracts of treated C6 glioma cells; format: cell-based, rat; conditions: C6 glioma cells treated 24 hours, nuclear extract, fluorescence (Fig. 6)
Description: The C6 glioma cells were treated with different doses of NBM-HD-1 and sodium butyrate (SB). After 24 hours, the cells were harvested to extract the nuclear proteins by NucBuster™ Protein Extraction Kit (Novagen) as described by the manufacturer's instructions. These extracts were then used in HDAC Activity Assay Kit (Calbiochem) to analyze their HDAC (histone deacetylase) inhibition activities. The HDAC fluorometric substrate, which comprises an acetylated lysine side chain, was incubated with extracted nuclear protein first. Deacetylation of the substrate sensitized the substrate, so that, in the second step, treatment with the Lysine Developer produced a fluorophore. The fluorophore can easily be analyzed by using a fluorescence plate reader. […] Inhibition of HDAC has been implicated in the induction of differentiation in cancer cells. In this experiment, a well-known compound for HDAC inhibition, sodium butyrate, was used as a positive control.

p21 = test: RT-PCR of p21 mRNA in MCF-7 cells; format: cell-based, human; conditions: different doses, 24 hours (Fig. 10)
Description: The cell cycle related to p21 mRNA expression was examined by RT-PCR. The total RNAs were isolated from the treated MCF-7 cells and used in the RT reaction. cDNA (1µl) was used as a template to amplify p21 gene by PCR. GAPDH was used as an internal control. […] In this experiment, MCF-7 cells were treated with different doses of NBM-HD-1 for 24 hours.

cortical neurons = test: Neurite outgrowth of cortical neurons cultivated from fetal rat neural stem cells; format: cell-based, Wistar rat; conditions: 0.63 µg/mL
Description: The growth medium for the NSCs (neural stem cells) and cortical neurons was prepared by adding penicillin G, streptomycin and 0.5 mM of L-glutamine into a B-27 supplemented neurobasal medium (Gibco). The unborn fetus was taken out of the fetal sac in the abdominal cavity of a 17-day pregnant Wistar rat under anesthesia. The cerebral tissue was removed from the fetus and treated with 0.1 % trypsin solution at 25 °C for three minutes. After washing with PBS solution 3 times, the cells were dissociated by up and down mixing. The resulting solution was passed through a 70µm Nylon cell strainer (Falcon) in order to obtain the filtrate that contained cerebral cells. The filtrate was centrifuged at 1000 rpm for 10 minutes and the supernatant was aspirated. The resulting pellet was resuspended in the growth medium prepared as stated above. The resulting suspension contained NSCs.
The cells obtained from the suspension were cultivated in 6-well plates coated with 30 µg/ml of poly-D-lysine (Sigma) at the density of 75 cells/mm^2. The cells were cultured at 37 °C, 5% CO2 and 95% relative humidity. The growth media contained 0.63 µg/mL of NBM-HD-1 and the growth media with 1 µl of DMSO was used as the control. […]
After cultivation for 6 days, live cells were observed by microscope. The lengths of the neurites of the neurons in 6 different fields were measured and averaged. […]

acetylated histone H4 = test: Western blotting of hyperacetylated histone H4 in C6 glioma cell lysates; format: cell-based, rat; conditions: C6 glioma cells
Description: Accumulation of hyperacetylated histone H4 was analyzed in the cell lysates by using Western Blotting and the antibody directed against acetylated histone H4 (Upstate). The C6 glioma cells were seeded at a density of 1×10^6 per 10cm culture dish. After 24 hours, the cells were treated with 10 µg/mL of NBM-HD-1 or 4mM sodium butyrate for several hours. The whole-cell lysates were prepared by using denaturing SDS sample buffer and then separated on 15% SDS-polyacrylamide gels. […] The amount of acetylated histones was hardly detectable in untreated C6 glioma cells. The amount of acetylated histone H4 of the cells treated with 4mM sodium butyrate for 2 hours increased. Sodium butyrate was then removed from the culture medium. After 6 hours, the amount of acetylated histone H4 decreased. The accumulation of acetylated histone H4 increased in the cells treated with NBM-HD-1 for 2 hours. […] The highest histone acetylation appeared at 6 hours after the compound had been removed. […] Because NBM-HD-1 is more hydrophobic than sodium butyrate, NBM-HD-1 can be retained in the cells longer than sodium butyrate and continuously induce the acetylation of histone H4.

For COc1cc2c(c(OC)c1CCC(C)(C)O)C(=O)C[C@@H](c1ccc(OC)c(OC)c1C/C=C(\C)CCCC(C)(C)O)O2 [NBM-HD-1], the HDAC activity (HDAC) was “significantly inhibits HDAC activity”, the “p21 mRNA expression” value (p21) was “induced the expression of p21 in a dose-dependent manner” and the “average length of the neurites” value (cortical neurons; 6 days, 6 different fields, versus DMSO control (Fig. 12(B))) was “greater than that of the control group”. The neurite outgrowth (cortical neurons; cultivation for 6 days (Fig. 12)) was “could promote the neurite outgrowth”, the “accumulation of acetylated histone H4, treated for 2 hours” value (acetylated histone H4; 10 µg/mL NBM-HD-1 or 4mM sodium butyrate, 2 hours (Fig. 5)) was “increased” and the “time of highest histone acetylation after the compound had been removed” value (acetylated histone H4; 10 µg/mL, 2 hours treatment, then removal) was 6 h. The “amount of acetylated histone H4 after removal of the compound from the culture medium” value (acetylated histone H4; up to 6 hours after removal (Fig. 5)) was “increased over time”.
